Laboratory results published in PubChem BioAssay AID248 (DTP/NCI, 2004).
Several values for one entry are separate records, joined by “and”; a condition that tells them apart may be missing. Equal values may be shown once. Inconclusive results and toxic doses are left out. No stated cut-off is given here; in the data, active means T/C of 150% or more; inactive means T/C below 125%.

Tested on: L1210 leukemia ip in BDF1 mice, survival T/C
Assay: NCI In Vivo Anticancer Drug Screen. Data for tumor model L1210 Leukemia (intraperitoneal) in B6D2F1 (BDF1) mice
Details: higher = longer survival
Outline: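 Ratio derived from survival: compound-dosed mice over vehicle-dosed mice, all bearing a transplantable tumor.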

[1] = endpoint: mean survival time, dose: 100.0 mg/kg/injection, schedule: Q01DX009 (ip), vehicle: saline with Tween-80
[2] = endpoint: mean survival time, dose: 100.0 mg/kg/injection, schedule: Q04DX003 (ip), vehicle: saline with Tween-80
[3] = endpoint: mean survival time, dose: 200.0 mg/kg/injection, schedule: Q01DX009 (ip), vehicle: saline with Tween-80
[4] = endpoint: mean survival time, dose: 200.0 mg/kg/injection, schedule: Q04DX003 (ip), vehicle: saline with Tween-80
[5] = endpoint: mean survival time, dose: 400.0 mg/kg/injection, schedule: Q04DX003 (ip), vehicle: saline with Tween-80
[6] = endpoint: mean survival time, dose: 100.0 mg/kg/injection, schedule: Q04DX002 (ip), vehicle: Klucel (hydroxypropylcellulose) (HPC)
[7] = endpoint: mean survival time, dose: 200.0 mg/kg/injection, schedule: Q04DX002 (ip), vehicle: Klucel (hydroxypropylcellulose) (HPC)
[8] = endpoint: mean survival time, dose: 400.0 mg/kg/injection, schedule: Q04DX002 (ip), vehicle: Klucel (hydroxypropylcellulose) (HPC)
[9] = endpoint: mean survival time, dose: 100.0 mg/kg/injection, schedule: Q04DX002 (ip), vehicle: saline with Tween-80
[10] = endpoint: mean survival time, dose: 200.0 mg/kg/injection, schedule: Q04DX002 (ip), vehicle: saline with Tween-80
[11] = endpoint: mean survival time, dose: 100.0 mg/kg/injection, schedule: Q01DX009 (ip), vehicle: saline
[12] = endpoint: mean survival time, dose: 200.0 mg/kg/injection, schedule: Q01DX009 (ip), vehicle: saline
[13] = endpoint: mean survival time, dose: 100.0 mg/kg/injection, schedule: Q01DX001 (ip), vehicle: saline
[14] = endpoint: mean survival time, dose: 200.0 mg/kg/injection, schedule: Q01DX001 (ip), vehicle: saline
[15] = endpoint: mean survival time, dose: 400.0 mg/kg/injection, schedule: Q01DX001 (ip), vehicle: saline
[16] = endpoint: mean survival time, dose: 100.0 mg/kg/injection, schedule: Q01DX009 (ip), vehicle: Klucel (hydroxypropylcellulose) (HPC)
[17] = endpoint: mean survival time, dose: 100.0 mg/kg/injection, schedule: Q01DX001 (ip), vehicle: carboxymethylcellulose (CMC)
[18] = endpoint: mean survival time, dose: 200.0 mg/kg/injection, schedule: Q01DX001 (ip), vehicle: carboxymethylcellulose (CMC)
[19] = endpoint: mean survival time, dose: 400.0 mg/kg/injection, schedule: Q01DX001 (ip), vehicle: carboxymethylcellulose (CMC)

Measured: T/C

CCNC(C)(C)C(=O)c1ccc(Cl)s1
inactive: [1] 96 % of control | [2] 100 % of control | [3] 96 % of control | [4] 100 % of control | [5] 98 % of control

C=C(C)C(=O)OC (tested in a mixture with another compound)
inactive: endpoint: mean survival time, dose: 50.0 mg/kg/injection, schedule: Q04DX002 (ip), vehicle: Klucel (hydroxypropylcellulose) (HPC) 107 % of control | endpoint: mean survival time, dose: 75.0 mg/kg/injection, schedule: Q01DX001 (ip), vehicle: other 96 % of control | [6] 101 % of control | endpoint: mean survival time, dose: 150.0 mg/kg/injection, schedule: Q01DX001 (ip), vehicle: other 94 % of control | [7] 93 % of control | endpoint: mean survival time, dose: 300.0 mg/kg/injection, schedule: Q01DX001 (ip), vehicle: other 91 % of control | [8] 90 % of control

c1ccc(C2=NC3CCCCC3N=C2c2ccccc2)cc1 (stereo not drawn)
inactive: [2] 101 % of control | [4] 95 % of control | [5] 96 % of control

Clc1ccc(Cl)c(/C=C/c2ccc(Cl)c(Cl)c2)c1
inactive: endpoint: mean survival time, dose: 1.56 mg/kg/injection, schedule: Q01DX009 (ip), vehicle: Klucel (hydroxypropylcellulose) (HPC) 97 % of control | endpoint: mean survival time, dose: 3.12 mg/kg/injection, schedule: Q01DX009 (ip), vehicle: Klucel (hydroxypropylcellulose) (HPC) 95 % of control | endpoint: mean survival time, dose: 6.25 mg/kg/injection, schedule: Q01DX009 (ip), vehicle: Klucel (hydroxypropylcellulose) (HPC) 92 % of control and 100 % of control | endpoint: mean survival time, dose: 100.0 mg/kg/injection, schedule: Q04DX003 (ip), vehicle: Klucel (hydroxypropylcellulose) (HPC) 97 % of control

CC1CC(NC(=O)CC#N)CC(C)(C)C1 (stereo not drawn)
inactive: endpoint: mean survival time, dose: 50.0 mg/kg/injection, schedule: Q01DX009 (ip), vehicle: saline with Tween-80 93 % of control | [1] 90 % of control | [9] 94 % of control | [3] 97 % of control | [10] 102 % of control

CCCC(=O)C(CC)C(O)(C(F)(F)F)C(F)(F)F (stereo not drawn)
inactive: [11] 92 % of control | [12] 94 % of control

O=C(Nc1ccccc1)Oc1ccc(C2CCCCC2)cc1
inactive: [6] 93 % of control | [7] 121 % of control

O=c1[nH]cc(Sc2ccccc2)c(=O)[nH]1
inactive: [2] 101 % of control | [4] 93 % of control | [5] 96 % of control

C/C=C(/Br)C(=O)O
inactive: endpoint: mean survival time, dose: 12.5 mg/kg/injection, schedule: Q04DX002 (ip), vehicle: saline with Tween-80 113 % of control | endpoint: mean survival time, dose: 25.0 mg/kg/injection, schedule: Q04DX002 (ip), vehicle: saline with Tween-80 105 % of control | endpoint: mean survival time, dose: 50.0 mg/kg/injection, schedule: Q04DX002 (ip), vehicle: saline with Tween-80 98 % of control | [9] 105 % of control

[N-]=[N+]=Nc1ccc(-c2nc(N)nc(N)n2)cc1
inactive: endpoint: mean survival time, dose: 50.0 mg/kg/injection, schedule: Q01DX009 (ip), vehicle: saline 90 % of control | [11] 90 % of control | endpoint: mean survival time, dose: 100.0 mg/kg/injection, schedule: Q04DX003 (ip), vehicle: acetone 100 % of control | [12] 98 % of control | endpoint: mean survival time, dose: 200.0 mg/kg/injection, schedule: Q04DX003 (ip), vehicle: acetone 97 % of control | endpoint: mean survival time, dose: 400.0 mg/kg/injection, schedule: Q04DX003 (ip), vehicle: acetone 90 % of control

OCC1OC(CO)(c2ccccc2O)C(O)C1O (stereo not drawn) (tested in a mixture with another compound)
inactive: [13] 95 % of control | [14] 97 % of control | [15] 92 % of control

CN1C(=O)NC(=O)C1c1ccccc1 (stereo not drawn)
inactive: endpoint: mean survival time, dose: 100.0 mg/kg/injection, schedule: Q04DX002 (ip), vehicle: saline 117 % of control | endpoint: mean survival time, dose: 200.0 mg/kg/injection, schedule: Q04DX002 (ip), vehicle: saline 106 % of control | endpoint: mean survival time, dose: 400.0 mg/kg/injection, schedule: Q04DX002 (ip), vehicle: saline 106 % of control

CCOC(=O)CNc1cccc(F)c1C
inactive: [6] 104 % of control | [7] 104 % of control | [8] 115 % of control

COc1ccc(C)cc1NC(=O)c1c(Br)c(Br)c(Br)c(Br)c1C(=O)O
inactive: [16] 98 % of control | endpoint: mean survival time, dose: 200.0 mg/kg/injection, schedule: Q01DX009 (ip), vehicle: Klucel (hydroxypropylcellulose) (HPC) 92 % of control

C[CH2][Ge]([CH2]C)[CH2]C.C[CH2][Ge]([CH2]C)[CH2]C.C[CH2][Ge]([CH2]C)[O][Ge]([CH2]C)[CH2]C
inactive: [9] 106 % of control | [10] 106 % of control | endpoint: mean survival time, dose: 400.0 mg/kg/injection, schedule: Q04DX002 (ip), vehicle: saline with Tween-80 116 % of control

Cc1ccc(-c2nnc3c4ccccc4ccn23)cc1
inactive: [17] 93 % of control | [18] 93 % of control | [19] 91 % of control

COc1ccc(Nc2nc(N)nc(CNc3ccc(C)cc3)n2)cc1
inactive: [2] 94 % of control | [4] 92 % of control | [5] 96 % of control

Nc1nc(N)c2ncn(C3CC(O)C(CO)O3)c2n1 (stereo not drawn)
inactive: endpoint: mean survival time, dose: 50.0 mg/kg/injection, schedule: Q01DX001 (ip), vehicle: saline 96 % of control | [13] 110 % of control | [14] 90 % of control | [15] 96 % of control

N#C[C@H](OC1OC(COC2OC(CO)C(O)C(O)C2O)C(O)C(O)C1O)c1ccccc1 (stereo partly drawn)
inactive: [11] 102 % of control | [12] 101 % of control | endpoint: mean survival time, dose: 400.0 mg/kg/injection, schedule: Q01DX009 (ip), vehicle: saline 98 % of control | endpoint: median survival time, dose: 25.0 mg/kg/injection, schedule: Q01DX009 (ip), vehicle: water 101 % of control | endpoint: median survival time, dose: 25.0 mg/kg/injection, schedule: Q01DX Z (ip), vehicle: water 100 % of control | endpoint: median survival time, dose: 50.0 mg/kg/injection, schedule: Q01DX009 (ip), vehicle: water 92 % of control | endpoint: median survival time, dose: 50.0 mg/kg/injection, schedule: Q01DX Z (ip), vehicle: water 87 % of control | endpoint: median survival time, dose: 100.0 mg/kg/injection, schedule: Q01DX009 (ip), vehicle: water 51 % of control | endpoint: median survival time, dose: 200.0 mg/kg/injection, schedule: Q01DX009 (ip), vehicle: water 51 % of control | endpoint: median survival time, dose: 400.0 mg/kg/injection, schedule: Q01DX009 (ip), vehicle: water 93 % of control | endpoint: median survival time, dose: 400.0 mg/kg/injection, schedule: Q01DX Z (ip), vehicle: water 87 % of control

OC1C/C=C/CCCCC1 (stereo not drawn)
inactive: [6] 106 % of control | [7] 100 % of control | [8] 103 % of control

O=C1CC(N2CCCCC2)C(=O)N1c1ccccc1 (stereo not drawn)
inactive: [9] 92 % of control | [10] 95 % of control

O=C(O)COc1ccc(Cl)cc1CC(Cl)CCl (stereo not drawn)
inactive: endpoint: mean survival time, dose: 25.0 mg/kg/injection, schedule: Q01DX009 (ip), vehicle: Klucel (hydroxypropylcellulose) (HPC) 97 % of control | endpoint: mean survival time, dose: 50.0 mg/kg/injection, schedule: Q01DX009 (ip), vehicle: Klucel (hydroxypropylcellulose) (HPC) 119 % of control | [16] 97 % of control and 100 % of control

CCSC1OC(COS(C)(=O)=O)C(OS(C)(=O)=O)C1NC(C)=O (stereo not drawn)
inactive: endpoint: mean survival time, dose: 50.0 mg/kg/injection, schedule: Q01DX001 (ip), vehicle: carboxymethylcellulose (CMC) 97 % of control | [17] 97 % of control | [18] 92 % of control | [19] 97 % of control
